Data published in patent US11160796B2, “Anti-androgens for the treatment of non-metastatic castration-resistant prostate cancer” (priority 2017, dated 2021).
Entries after “also recorded” stand apart in the source; their conditions may differ.

Experiments:
[1] = in vivo; settings: dog
Text: Single-dose and repeat-dose toxicology studies up to 13 weeks of dosing have been conducted in male Sprague Dawley (SD) rats and male Beagle dogs (repeat-dose studies only).

[2] = molecular target: T1, CYP2C8 (Homo sapiens, UniProt P10632); assay: Drug-drug interaction study, cocktail approach: CYP2C8 substrate; settings: in vivo
T1 construct: from tissue; host or cells: human subjects, in vivo (clinical pharmacology)
T1 sequence (P10632 1-490): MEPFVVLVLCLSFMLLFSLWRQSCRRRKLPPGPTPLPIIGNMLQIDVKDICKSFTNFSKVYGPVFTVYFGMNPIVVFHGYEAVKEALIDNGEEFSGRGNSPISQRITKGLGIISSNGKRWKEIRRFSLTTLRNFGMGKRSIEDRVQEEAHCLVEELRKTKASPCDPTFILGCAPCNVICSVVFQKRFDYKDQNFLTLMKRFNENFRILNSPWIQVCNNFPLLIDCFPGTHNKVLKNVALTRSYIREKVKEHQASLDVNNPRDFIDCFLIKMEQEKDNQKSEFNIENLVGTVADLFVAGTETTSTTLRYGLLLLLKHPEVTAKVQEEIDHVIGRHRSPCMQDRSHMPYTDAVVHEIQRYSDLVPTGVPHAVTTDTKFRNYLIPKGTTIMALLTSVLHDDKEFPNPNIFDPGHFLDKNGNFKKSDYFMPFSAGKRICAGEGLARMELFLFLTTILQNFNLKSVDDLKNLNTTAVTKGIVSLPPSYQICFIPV

[3] = molecular target: T2, human cytochrome P450 isoform CYP2C8 (Homo sapiens, UniProt P10632); assay: Cytochrome P450 inhibition: CYP2C8; assay type: in vitro ADME
T2 sequence (P10632 1-490): T1 sequence (P10632 1-490)

[4] = molecular target: T3, organic anion transporter 1 (OAT1) (Homo sapiens, UniProt Q4U2R8); assay: In vitro transporter inhibition: OAT1
T3 sequence (Q4U2R8 1-563): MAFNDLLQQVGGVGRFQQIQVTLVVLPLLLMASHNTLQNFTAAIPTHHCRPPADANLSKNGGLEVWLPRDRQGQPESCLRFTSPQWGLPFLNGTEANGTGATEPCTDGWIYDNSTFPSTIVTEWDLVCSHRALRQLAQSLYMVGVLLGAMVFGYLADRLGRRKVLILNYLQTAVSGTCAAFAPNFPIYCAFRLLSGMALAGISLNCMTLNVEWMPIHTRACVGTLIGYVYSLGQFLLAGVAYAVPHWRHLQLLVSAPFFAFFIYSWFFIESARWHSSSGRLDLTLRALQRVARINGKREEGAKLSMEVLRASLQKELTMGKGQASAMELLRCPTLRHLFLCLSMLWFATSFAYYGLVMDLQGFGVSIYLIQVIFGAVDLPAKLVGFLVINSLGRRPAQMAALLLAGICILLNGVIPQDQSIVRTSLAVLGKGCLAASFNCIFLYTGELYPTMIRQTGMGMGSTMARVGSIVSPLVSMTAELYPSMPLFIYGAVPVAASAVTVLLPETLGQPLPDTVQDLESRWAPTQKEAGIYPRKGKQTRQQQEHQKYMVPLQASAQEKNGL

[5] = Incubation with liver S9 fraction and liver microsomes; assay type: in vitro ADME; settings: incubated for up to 120 minutes; rat, dog, and human
Text: The primary in vivo metabolites were formed by N-demethylation and amide hydrolysis in the rat and dog.

[6] = test system: T4, major CYP isoforms other than CYP2C8; assay: Cytochrome P450 inhibition: major isoforms; assay type: in vitro ADME; settings: human; the other major isoforms (other than CYP2C8)
T4 construct: IC50; other: the other major isoforms (other than CYP2C8)

[7] = molecular target: P-gp (Homo sapiens, UniProt P08183); assay: In vitro transporter substrate assessment: P-gp
[8] = molecular target: T5, CYP3A4 (Homo sapiens, UniProt P08684); assay: Contribution of CYP3A4 in the metabolism of apalutamide; assay type: in vivo; settings: estimated
T5 construct: from tissue; host or cells: human subjects, in vivo (clinical pharmacology)

[9] = test system: castration-resistant prostate cancer (CRPC); assay: Phase II clinical trial of apalutamide 240 mg daily in CRPC; assay type: in vivo, human; settings: for 12-week PSA declines of >50% or more from baseline (% of patients): preliminary
Text: The primary objective was to assess antitumor activity and PSA kinetics as defined by the Prostate Cancer Clinical Trials Working Group (PCWG2) criteria. […] The median time to PSA progression was not reached for the TN cohort during the preliminary 12-week period, and was 16 weeks in the PA cohort.
The median time to PSA progression was not reached in this observed time period.

[10] = In vivo rat (bone marrow) micronucleus assay
[11] = molecular target: T1, CYP2C8; assay: Contribution of CYP2C8 in the metabolism of apalutamide; assay type: in vivo; settings: estimated
[12] = Fertility study in male rats; assay type: in vivo
[13] = Dedicated QT study in patients with CRPC; assay type: in vivo, human; settings: 240 mg once daily
Text: There was no difference greater than 20 ms in the mean QT interval change from baseline, based on the Fridericia correction method, across all timepoints at steady-state.
The maximum mean QTcF change from baseline was 12.4 ms (2-sided 90% upper CI: 16.0 ms).

[14] = test system: human CYP2B6 and CYP3A4; settings: hepatocytes
[15] = test system: CYP2C9, CYP2C19, and CYP3A4; assay: In vitro CYP inhibition: CYP2C9, CYP2C19, CYP3A4

T5 sequence (P08684 whole entry): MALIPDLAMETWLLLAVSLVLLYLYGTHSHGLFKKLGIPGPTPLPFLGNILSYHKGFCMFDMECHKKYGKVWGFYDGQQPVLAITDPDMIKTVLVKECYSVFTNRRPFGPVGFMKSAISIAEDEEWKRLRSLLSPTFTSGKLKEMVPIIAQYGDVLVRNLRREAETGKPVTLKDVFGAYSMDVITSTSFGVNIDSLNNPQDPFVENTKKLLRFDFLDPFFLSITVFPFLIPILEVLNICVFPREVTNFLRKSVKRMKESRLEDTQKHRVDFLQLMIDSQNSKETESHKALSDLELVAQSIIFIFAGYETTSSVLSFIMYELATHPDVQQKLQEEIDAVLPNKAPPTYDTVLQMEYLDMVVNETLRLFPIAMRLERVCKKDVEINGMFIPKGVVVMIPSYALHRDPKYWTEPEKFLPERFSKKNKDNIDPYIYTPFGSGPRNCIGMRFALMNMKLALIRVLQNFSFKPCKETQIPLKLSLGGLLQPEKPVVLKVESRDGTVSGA
Sequence of P-gp (P08183 whole entry): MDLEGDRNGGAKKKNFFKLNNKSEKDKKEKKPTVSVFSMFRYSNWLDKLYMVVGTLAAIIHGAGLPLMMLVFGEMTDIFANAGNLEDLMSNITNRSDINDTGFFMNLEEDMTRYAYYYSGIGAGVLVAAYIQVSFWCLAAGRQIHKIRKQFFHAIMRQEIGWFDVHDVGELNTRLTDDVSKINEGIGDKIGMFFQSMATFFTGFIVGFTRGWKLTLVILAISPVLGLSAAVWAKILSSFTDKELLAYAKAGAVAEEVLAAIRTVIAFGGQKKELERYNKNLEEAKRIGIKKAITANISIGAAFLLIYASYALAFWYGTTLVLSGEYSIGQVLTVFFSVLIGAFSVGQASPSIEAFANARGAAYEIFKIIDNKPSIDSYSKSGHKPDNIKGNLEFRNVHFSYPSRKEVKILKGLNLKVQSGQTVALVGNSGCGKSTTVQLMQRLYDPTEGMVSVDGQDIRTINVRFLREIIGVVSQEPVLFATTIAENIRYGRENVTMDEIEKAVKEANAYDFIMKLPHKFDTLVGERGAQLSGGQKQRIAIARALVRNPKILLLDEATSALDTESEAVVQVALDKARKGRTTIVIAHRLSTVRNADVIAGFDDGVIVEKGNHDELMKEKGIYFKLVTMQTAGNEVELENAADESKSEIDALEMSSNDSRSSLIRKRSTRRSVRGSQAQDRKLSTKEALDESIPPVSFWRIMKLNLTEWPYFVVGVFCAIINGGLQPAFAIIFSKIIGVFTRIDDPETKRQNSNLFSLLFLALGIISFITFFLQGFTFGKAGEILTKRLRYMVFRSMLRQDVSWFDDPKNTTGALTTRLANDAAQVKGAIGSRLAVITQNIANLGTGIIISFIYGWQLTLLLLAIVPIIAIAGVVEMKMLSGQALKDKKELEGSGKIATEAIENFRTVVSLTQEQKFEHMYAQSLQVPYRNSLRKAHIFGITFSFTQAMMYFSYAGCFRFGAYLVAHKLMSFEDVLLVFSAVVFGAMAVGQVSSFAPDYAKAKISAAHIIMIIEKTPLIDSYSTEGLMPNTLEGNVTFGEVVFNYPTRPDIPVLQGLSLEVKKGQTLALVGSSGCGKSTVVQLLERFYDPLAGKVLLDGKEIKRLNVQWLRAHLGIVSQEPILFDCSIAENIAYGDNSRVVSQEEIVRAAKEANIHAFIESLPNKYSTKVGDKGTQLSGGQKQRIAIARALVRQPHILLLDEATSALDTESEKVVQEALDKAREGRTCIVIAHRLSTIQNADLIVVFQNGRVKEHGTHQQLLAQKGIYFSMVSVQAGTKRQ

CNC(=O)c1ccc(N2C(=S)N(c3cnc(C#N)c(C(F)(F)F)c3)C(=O)C23CCC3)cc1F [apalutamide, 4-[7-(6-cyano-5-trifluoromethylpyridin-3-yl)-8-oxo-6-thioxo-5,7-diazaspiro[3.4]oct-5-yl]-2-fluoro-N-methylbenzamide]
increases in cholesterol compared to controls [1]: up to 50% | NOAEL at 13 weeks ([1]; male, Beagle): 5 mg/kg/day | NOAEL at 28 days ([1]; male, Beagle): 10 mg/kg/day | dose at which seizures necessitating humane euthanasia occurred ([1]; male, Beagle): ≥ 25 mg/kg/day | dose with reproductive system findings ([1]; male, Beagle): > 2.5 mg/kg/day | AUC(0-t) ([1]; male, Beagle, 10 mg/kg/day): 290 µg·h/mL | Cmax ([1]; male, Beagle, 10 mg/kg/day): 13200 ng/mL | changes in exposure to the CYP2C8 substrate [2]: did not cause clinically meaningful changes | IC50 [3]: 13.9 µM | inhibition of OAT1 [4]: No in vitro inhibition; also recorded: do not inhibit | turnover [5]: very low turnover | IC50 [6]: > 25 µM | substrate for P-gp [7]: substrates for P-gp | contribution of CYP3A4 in the metabolism ([8]; at steady-state): 37% | contribution of CYP3A4 in the metabolism ([8]; following single dose): 13% | median time to PSA progression ([9]; PA cohort): 16 weeks | 12-week PSA declines of >50% or more from baseline (% of patients) ([9]; PA cohort (progressed after abiraterone acetate plus prednisone), 240 mg oral daily): 29% | 12-week PSA declines of >50% or more from baseline (% of patients) ([9]; TN cohort (treatment-naive metastatic CRPC), 240 mg oral daily): 88% | median time to PSA progression ([9]; TN cohort, preliminary 12-week period): not reached | objective response rate (by RECIST) ([9]; TN patients with measurable disease at baseline): 63% | patients with >50% decline in PSA as compared to baseline ([9]; non-metastatic CRPC, 240 mg oral daily, 12 weeks): 91% | patients with >50% decline in PSA ([9]; non-metastatic CRPC, 24 weeks): 91% | patients with >90% decline in PSA ([9]; non-metastatic CRPC, 24 weeks): 55% | median time to PSA progression ([9]; non-metastatic CRPC, observed time period): not reached | genotoxicity, in vivo rat micronucleus assay [10]: not genotoxic | contribution of CYP2C8 in the metabolism ([11]; at steady-state): 40% | contribution of CYP2C8 in the metabolism ([11]; following single dose): 58% | live fetuses (pre- and/or post-implantation loss) ([12]; 4 weeks of 150 mg/kg/day): reduced number of live fetuses | dose with decreased sperm concentration and motility, copulation and fertility rates, reduced secondary sex gland and epididymis weights ([12]; 4 weeks of dosing, male rats): > 25 mg/kg/day | reversibility of effects on male rats ([12]; after 8 weeks from the last administration): reversible | maximum mean QTcF change from baseline ([13]; 45 patients with CRPC): 12.4 ms | difference in mean QT interval change from baseline (Fridericia correction) ([13]; all timepoints at steady-state): ≤ 20 ms | CYP3A4 and CYP2B6 induction [14]: moderate to strong CYP3A4 and CYP2B6 inducers | inhibition of CYP2C9, CYP2C19, and CYP3A4 [15]: weak inhibitors
